Each structure is given as a SMILES string.

The subject of assay [1] is T-Rex 293 cell line SC3 cells lacking increased expression of androgen receptor protein. The assay can be described thus: Cellular growth inhibition, T-Rex 293 SC3 cells without doxycycline, CellTiter-Glo. Format: cell-based. Particulars: 72 h, T-Rex 293 SC3 cells not exposed to doxycycline, CellTiter-Glo 2.0. The essentials: (§1)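 Doxycycline-inducible androgen receptor T-Rex 293 clone SC3, seeded at 2500/well in phenol red-free DMEM with 10% charcoal-dextran FBS, without doxycycline or with 10 ng/mL to induce receptor. Compound added after 24 h (0.5% DMSO), 72 h at 37 °C; CellTiter-Glo 2.0 luminescence, GI50 by four-parameter fit.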

The subject of assay [2] is T-Rex 293 cell line SC3 cells having increased expression of androgen receptor protein due to exposure to doxycycline. The assay can be described thus: Cellular growth inhibition, T-Rex 293 SC3 cells with doxycycline (androgen receptor induced), CellTiter-Glo. The format is cell-based. The note with it: 72 h, T-Rex 293 SC3 cells with 10 ng/mL doxycycline (increased androgen receptor expression). An outline of the steps: as §1
A general note: Cellular ATP, detected with luciferase, serves as a proxy for viable cell number.

For the next assay, the system named is VCaP cells. In words: Cellular growth inhibition assay for VCaP cells, CellTiter-Glo. The format is cell-based, human. The note with it: Homo sapiens, VCaP, 72 h, 72 hours treatment, CellTiter-Glo 2.0. The essentials:
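GI50 values come from four-parameter curve fits of luminescence data normalized to a zero baseline. Compound, in medium with 0.5% DMSO, was added one day after plating and left for 72 h before CellTiter-Glo 2.0 addition.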

The GI50 is the concentration that inhibits growth by half. In the case of `CCNC(=O)C[C@@H]1N=C(c2ccc(OCCCCc3ncc(C(=O)N[C@H]4C(C)(C)[C@H](Oc5ccc(C#N)c(Cl)c5)C4(C)C)cn3)cc2)c2c(sc(C)c2C)-n2c(C)nnc21` [Compound I-86], the GI50 in assay [1] was 1.5 to 3 µM; in assay [2], below 0.5 µM; in the assay with VCaP cells, 0.5 to 1.5 µM.
The corresponding values for `CCNC(=O)C[C@@H]1N=C(c2ccc(C#CCN3CCN(c4ncc(C(=O)N[C@H]5C(C)(C)[C@H](Oc6ccc(C#N)c(Cl)c6)C5(C)C)cn4)CC3)cc2)c2c(sc(C)c2C)-n2c(C)nnc21` [Compound I-54, N-[3-(3-chloro-4-cyano-phenoxy)-2,2,4,4-tetramethyl-cyclobutyl]-2-[4-[3-[4-[(9S)-9-[2-(ethylamino)-2-oxo-ethyl]-4,5,13-trimethyl-3-thia-1,8,11,12-tetrazatricyclo[8.3.0.02,6]trideca-2(6),4,7,10,12-pentaen-7-yl]phenyl]prop-2-ynyl]piperazin-1-yl]pyrimidine-5-carboxamide] are 0.5 to 1.5 µM, below 0.5 µM and below 0.5 µM.
On the same counts, the results for `Cc1sc2c(c1C)C(c1ccc(Cl)cc1)=N[C@@H](CC(=O)NCCOCCOCCOCC1CN(c3ncc(C(=O)N[C@H]4C(C)(C)[C@H](Oc5ccc(C#N)c(Cl)c5)C4(C)C)cn3)C1)c1nnc(C)n1-2` [Compound I-18] are 1.5 to 3 µM, 0.5 to 1.5 µM and below 0.5 µM.
On the same counts, the results for `CCNC(=O)C[C@@H]1N=C(c2ccc(N3CCN(CC4CCN(c5ncc(C(=O)N[C@H]6C(C)(C)[C@H](Oc7ccc(C#N)c(Cl)c7)C6(C)C)cn5)CC4)CC3)cc2)c2c(sc(C)c2C)-n2c(C)nnc21` [Compound I-105, N-[3-(3-chloro-4-cyano-phenoxy)-2,2,4,4-tetramethyl-cyclobutyl]-2-[4-[[4-[4-[(9S)-9-[2-(ethylamino)-2-oxo-ethyl]-4,5,13-trimethyl-3-thia-1,8,11,12-tetrazatricyclo[8.3.0.02,6]trideca-2(6),4,7,10,12-pentaen-7-yl]phenyl]piperazin-1-yl]methyl]-1-piperidyl]pyrimidine-5-carboxamide] are below 0.5 µM, below 0.5 µM and below 0.5 µM.
Regarding `Cc1sc2c(c1C)C(c1ccc(OC3CC4(CCN(c5ncc(C(=O)N[C@H]6C(C)(C)[C@H](Oc7ccc(C#N)c(Cl)c7)C6(C)C)cn5)CC4)C3)cc1)=N[C@@H](Cc1ncco1)c1nnc(C)n1-2` [Compound I-49, N-[3-(3-chloro-4-cyano-phenoxy)-2,2,4,4-tetramethyl-cyclobutyl]-2-[2-[4-[(9S)-4,5,13-trimethyl-9-(oxazol-2-ylmethyl)-3-thia-1,8,11,12-tetrazatricyclo[8.3.0.02,6]trideca-2(6),4,7,10,12-pentaen-7-yl]phenoxy]-7-azaspiro[3.5]nonan-7-yl]pyrimidine-5-carboxamide], the GI50 (in assay [1]; in assay [2]; in the assay with VCaP cells) was below 0.5 µM each time.
As to `Cc1sc2c(c1C)C(c1ccc(CC3CC(C4CCN(c5ncc(C(=O)N[C@H]6C(C)(C)[C@H](Oc7ccc(C#N)c(Cl)c7)C6(C)C)cn5)CC4)C3)cc1)=NC(Cc1ncco1)c1nnc(C)n1-2` (stereo partly drawn) [Compound I-136], the 50% growth inhibitory concentration (GI50) in assay [1] is above 3 µM; in assay [2], below 0.5 µM; with VCaP cells it was below 0.5 µM.
With `CCNC(=O)C[C@@H]1N=C(c2ccc(OCCOC3CCN(c4ncc(C(=O)N[C@H]5C(C)(C)[C@H](Oc6ccc(C#N)c(Cl)c6)C5(C)C)cn4)CC3)cc2)c2c(sc(C)c2C)-n2c(C)nnc21` [Compound I-60, N-((1r,3r)-3-(3-chloro-4-cyanophenoxy)-2,2,4,4-tetramethylcyclobutyl)-2-(4-(2-(4-((S)-6-(2-(ethylamino)-2-oxoethyl)-2,3,9-trimethyl-6H-thieno[3,2-f][1,2,4]triazolo[4,3-a][1,4]diazepin-4-yl)phenoxy)ethoxy)piperidin-1-yl)pyrimidine-5-carboxamide], the GI50 was below 0.5 µM in assay [1], below 0.5 µM in assay [2] and 0.5 to 1.5 µM with VCaP cells.
For the compound `CCNC(=O)C[C@@H]1N=C(c2ccc(Oc3ncc(C(=O)N[C@H]4C(C)(C)[C@H](Oc5ccc(C#N)c(Cl)c5)C4(C)C)cn3)cc2)c2c(sc(C)c2C)-n2c(C)nnc21` [Compound I-84], the results for the GI50 (in assay [1]; in assay [2]; in the assay with VCaP cells) were 1.5 to 3 µM, 0.5 to 1.5 µM and 0.5 to 1.5 µM, respectively.
For the compound `Cc1sc2c(c1C)C(c1cccc(OCCOCCOCCOC3CCN(c4ncc(C(=O)N[C@H]5C(C)(C)[C@H](Oc6ccc(C#N)c(Cl)c6)C5(C)C)cn4)CC3)c1)=N[C@@H](CC(=O)O)c1nnc(C)n1-2` [Compound I-43], the GI50 (in assay [1]; in assay [2]; in the assay with VCaP cells) was above 3 µM each time.
For the compound `Cc1sc2c(c1C)C(c1ccc(CCCOC3CCN(c4ncc(C(=O)N[C@H]5C(C)(C)[C@H](Oc6ccc(C#N)c(Cl)c6)C5(C)C)cn4)CC3)cc1)=N[C@@H](C)c1nnc(C)n1-2` [Compound I-228, N-[3-(3-chloro-4-cyano-phenoxy)-2,2,4,4-tetramethyl-cyclobutyl]-2-[4-[3-[4-[(9S)-4,5,9,13-tetramethyl-3-thia-1,8,11,12-tetrazatricyclo [8.3.0.02,6]trideca-2(6),4,7,10,12-pentaen-7-yl]phenyl]propoxy]-1-piperidyl]pyrimidine-5-carboxamide], the GI50 is 0.5 to 1.5 µM in assay [1], below 0.5 µM in assay [2] and below 0.5 µM in the assay on VCaP cells.
For `Cc1sc2c(c1C)C(c1ccc(C#CCN3CCN(c4ncc(C(=O)N[C@H]5C(C)(C)[C@H](Oc6ccc(C#N)c(Cl)c6)C5(C)C)cn4)CC3)cc1)=N[C@@H](CC(=O)OC(C)(C)C)c1nnc(C)n1-2` [Compound I-55], the results for the GI50 (in assay [1]; in assay [2]; in the assay on VCaP cells) were above 3 µM, below 0.5 µM and above 3 µM, respectively.
For `Cc1sc2c(c1C)C(c1ccc(O[C@H]3CC[C@@]4(CCCN(c5ncc(C(=O)N[C@H]6C(C)(C)[C@H](Oc7ccc(C#N)c(Cl)c7)C6(C)C)cn5)C4)CC3)cc1)=N[C@@H](Cc1ncco1)c1nnc(C)n1-2` [Compound I-172], the results for the GI50 (in assay [1]; in assay [2]; in the assay with VCaP cells) were 0.5 to 1.5 µM, below 0.5 µM and 0.5 to 1.5 µM, respectively.
For `CCNC(=O)C[C@@H]1N=C(c2cccc(OCCOCCOCCOC3CCN(c4ncc(C(=O)N[C@H]5C(C)(C)[C@H](Oc6ccc(C#N)c(Cl)c6)C5(C)C)cn4)CC3)c2)c2c(sc(C)c2C)-n2c(C)nnc21` [Compound I-48, N-((1r,3r)-3-(3-chloro-4-cyanophenoxy)-2,2,4,4-tetramethylcyclobutyl)-2-(4-(2-(2-(2-(3-((S)-6-(2-(ethylamino)-2-oxoethyl)-2,3,9-trimethyl-6H-thieno[3,2-f][1,2,4]triazolo[4,3-a][1,4]diazepin-4-yl)phenoxy)ethoxy)ethoxy)ethoxy)piperidin-1-yl)pyrimidine-5-carboxamide], the GI50 in assay [1] was 0.5 to 1.5 µM; in assay [2], below 0.5 µM; in the assay on VCaP cells it was below 0.5 µM.
In the case of `CCNC(=O)C[C@@H]1N=C(c2ccc(OC3CCN(c4ncc(C(=O)N[C@H]5C(C)(C)[C@H](Oc6ccc(C#N)c(Cl)c6)C5(C)C)cn4)CC3)cc2)c2c(sc(C)c2C)-n2c(C)nnc21` [Compound I-61], the results for the GI50 (in assay [1]; in assay [2]; in the assay on VCaP cells) were 1.5 to 3 µM, below 0.5 µM and 0.5 to 1.5 µM, respectively.
As to `CCNC(=O)C[C@@H]1N=C(c2ccc(CCCN(C)c3ncc(C(=O)N[C@H]4C(C)(C)[C@H](Oc5ccc(C#N)c(Cl)c5)C4(C)C)cn3)cc2)c2c(sc(C)c2C)-n2c(C)nnc21` [Compound I-104], the GI50 was below 0.5 µM in assay [1], below 0.5 µM in assay [2] and above 3 µM with VCaP cells.
With `Cc1sc2c(c1C)C(c1ccc(Cl)cc1)=N[C@@H](CC(=O)NCCCCOCCOC1CCN(c3ncc(C(=O)N[C@H]4C(C)(C)[C@H](Oc5ccc(C#N)c(Cl)c5)C4(C)C)cn3)CC1)c1nnc(C)n1-2` [Compound I-28], the results for the GI50 (in assay [1]; in assay [2]; in the assay with VCaP cells) were 0.5 to 1.5 µM, below 0.5 µM and below 0.5 µM, respectively.
With `CCNC(=O)C[C@@H]1N=C(c2cccc(OCCOC3CCN(c4ncc(C(=O)N[C@H]5C(C)(C)[C@H](Oc6ccc(C#N)c(Cl)c6)C5(C)C)cn4)CC3)c2)c2c(sc(C)c2C)-n2c(C)nnc21` [Compound I-46, N-((1r,3r)-3-(3-chloro-4-cyanophenoxy)-2,2,4,4-tetramethylcyclobutyl)-2-(4-(2-(3-((S)-6-(2-(ethylamino)-2-oxoethyl)-2,3,9-trimethyl-6H-thieno[3,2-f][1,2,4]triazolo[4,3-a][1,4]diazepin-4-yl)phenoxy)ethoxy)piperidin-1-yl)pyrimidine-5-carboxamide], the 50% growth inhibitory concentration (GI50) in assay [1] was 0.5 to 1.5 µM; in assay [2], below 0.5 µM; in the assay on VCaP cells, 0.5 to 1.5 µM.
Turning to `CCNC(=O)C[C@@H]1N=C(c2ccc(CCCC3CCN(c4ncc(C(=O)N[C@H]5C(C)(C)[C@H](Oc6ccc(C#N)c(Cl)c6)C5(C)C)cn4)CC3)cc2)c2c(sc(C)c2C)-n2c(C)nnc21` [Compound I-95], the results for the 50% growth inhibitory concentration (GI50) (in assay [1]; in assay [2]; in the assay on VCaP cells) were below 0.5 µM, below 0.5 µM and 1.5 to 3 µM, respectively.
On to `Cc1sc2c(c1C)C(c1ccc(Cl)cc1)=N[C@@H](CC(=O)NCCCN1CCN(CCCOC3CCN(c4ncc(C(=O)N[C@H]5C(C)(C)[C@H](Oc6ccc(C#N)c(Cl)c6)C5(C)C)cn4)CC3)CC1)c1nnc(C)n1-2` [Compound I-10], for which the values for the GI50 (in assay [1]; in assay [2]; in the assay on VCaP cells) were 1.5 to 3 µM, below 0.5 µM and below 0.5 µM, respectively.
For the compound `Cc1sc2c(c1C)C(c1ccc(CCCOC3CCN(c4ncc(C(=O)N[C@H]5C(C)(C)[C@H](Oc6ccc(C#N)c(Cl)c6)C5(C)C)cn4)CC3)cc1)=N[C@@H](CC(=O)NC1CC1)c1nnc(C)n1-2` [Compound I-102], the GI50 is above 3 µM in assay [1], below 0.5 µM in assay [2] and below 0.5 µM in the assay on VCaP cells.

The record behind these values is US20260062422A1 (Halda Therapeutics OpCo, Inc., priority 2022, published 2026).
